Assay results from ChEMBL document CHEMBL3124910, “Discovery and structure-activity relationships study of novel thieno[2,3-b]pyridine analogues as hepatitis C virus inhibitors” (Bioorg Med Chem Lett, 2014).

Legend:
Hepatitis C virus = assay: Antiviral activity against HCV genotype 1b infected in human HuH7 cells assessed as inhibition of viral RNA replication after 72 hrs by luciferase reporter gene assay; assay type: functional, organism-based, Hepacivirus hominis; settings: Huh-7, 72 h
[1] = Cytotoxicity against human HuH7 cells after 72 hrs by MTT assay; assay type: cell-based, Huh-7
[2] = Cytotoxicity against human LO2 cells after 72 hrs by MTT assay; assay type: cell-based, L02
[3] = Selectivity index, ratio of CC50 for human HuH7 cells to EC50 for HCV genotype 1b infected in human HuH7 cells; design: species or system Huh-7
[4] = Cytotoxicity against human HEK293 cells after 72 hrs by MTT assay; assay type: cell-based

Structure (SMILES) | EC50 (Hepatitis C virus) | CC50 at 72 h [1] | CC50 at 72 h [2] | Ratio CC50/EC50 [3] | CC50 at 72 h [4]
Nc1c(C(=O)N2CCOCC2)sc2nc(-c3cccc(F)c3)cc(C(F)(F)F)c12 | 6.7 µM | > 20 µM |  |  | 
CCOC(=O)c1oc2nc(-c3cccs3)cc(C(F)(F)F)c2c1N | 18.5 µM | > 20 µM |  |  | 
Nc1c(C(=O)N2CCOCC2)sc2nc(-c3ccco3)cc(C(F)(F)F)c12 | 9.6 µM | > 20 µM |  |  | 
Nc1c(C(=O)N2CCOCC2)oc2nc(-c3ccccc3)cc(C(F)(F)F)c12 | 11.2 µM | > 20 µM |  |  | 
CCOC(=O)c1oc2nc(-c3ccccc3)cc(C(F)(F)F)c2c1N | 6.8 µM | > 20 µM |  |  | 
Nc1c(C(=O)N2CCOCC2)sc2nc(-c3ccccc3)cc(C(F)(F)F)c12 | 3.3 µM | > 100 µM | 94.4 µM | >30.3 | 85.1 µM
COc1cccc(-c2ccc3c(N)c(C(N)=O)sc3n2)c1 | > 20 µM | < 0.4 µM |  |  | 
Nc1c(C(=O)N2CCC(=O)CC2)sc2nc(-c3ccccc3)cc(C(F)(F)F)c12 | > 20 µM | > 20 µM |  |  | 
CCOC(=O)c1sc2nc(-c3ccccc3)cc(C(F)(F)F)c2c1N | 19.3 µM | > 20 µM |  |  | 
Nc1c(C(=O)N2CCOCC2)sc2nc(-c3nccs3)cc(C(F)(F)F)c12 | 8.9 µM | > 20 µM |  |  | 
CN(C)C(=O)c1sc2nc(-c3ccccc3)cc(C(F)(F)F)c2c1N | 8.2 µM | > 20 µM |  |  | 
Nc1c(C(=O)N2CCOCC2)sc2nc(-c3ccc(Cl)c(Cl)c3)cc(C(F)(F)F)c12 | > 20 µM | > 20 µM |  |  | 
CC(C)(C)OC(=O)N1CCN(C(=O)c2sc3nc(-c4ccccc4)cc(C(F)(F)F)c3c2N)CC1 | > 20 µM | > 20 µM |  |  | 
Nc1c(C(=O)NC2CCCC2)sc2nc(-c3ccccc3)cc(C(F)(F)F)c12 | 5.5 µM | > 20 µM |  |  | 
Nc1c(C(=O)N2CCc3sccc3C2)sc2nc(-c3ccccc3)cc(C(F)(F)F)c12 | 12.5 µM | > 20 µM |  |  | 
Nc1c(C(=O)N2CCOCC2)sc2nc(-c3ccccc3)ccc12 | 17.2 µM | > 20 µM |  |  | 
CCOC(=O)c1sc2nc(C3CC3)cc(C(F)(F)F)c2c1N | 6.8 µM | > 20 µM |  |  | 
CN1CCN(C(=O)c2sc3nc(-c4ccccc4)cc(C(F)(F)F)c3c2N)CC1 | 11.4 µM | > 20 µM |  |  | 
NC(=O)c1sc2nc(-c3ccccc3)cc(C(F)(F)F)c2c1N | 8.2 µM | > 20 µM |  |  | 
COc1ccc(-c2cc(C(F)(F)F)c3c(N)c(C(=O)N4CCOCC4)sc3n2)cc1 | 10.3 µM | > 20 µM |  |  | 
Nc1c(C(=O)NCc2ccccc2)sc2nc(-c3ccccc3)cc(C(F)(F)F)c12 | > 20 µM | > 20 µM |  |  | 
COc1ccccc1-c1cc(C(F)(F)F)c2c(N)c(C(=O)N3CCOCC3)sc2n1 | 8.3 µM | > 20 µM |  |  | 
NC(=O)c1sc2nc(C3CC3)cc(C(F)(F)F)c2c1N | 12.2 µM | > 20 µM |  |  | 
COc1ccccc1-c1ccc2c(N)c(C(N)=O)sc2n1 | > 20 µM | > 20 µM |  |  | 
